The values below come from article PMC5620571, “Pharmacokinetic Analysis of an Oral Multicomponent Joint Dietary Supplement (Phycox®) in Dogs” (Pharmaceutics, 2017).

The nature of data set [1]: Single-dose oral pharmacokinetic study of one Phycox soft chew in dogs (serum, LC-MS/MS, non-compartmental analysis). In kind it is in vivo, dog (female Beagle). As to conditions: for serum concentration of polyphenol (aglycone or glucuronidated metabolite): single PO Phycox soft chew (36.1 μg ±hesperetin, 0.554 μg trans-resveratrol, 2.88 μg ±naringenin), serum 0-24 h; for half-life: po, 450 mg. From the text: The animal research protocol used in this study was reviewed and approved by the Institutional Animal Care and Use Committee at Washington State University (protocol #04224-011, approved 21 December 2014). Four commercially available purpose-bred intact female research Beagles from an Association for Assessment and Accreditation of Laboratory Animal Care (AALAC) certified source were used for the study. All dogs were 2 years of age at the onset of the study with a weight of 9.25 ± 0.81 kg (mean ± SD; range 8.4–10.2 kg). Animals were housed in AALAC approved facilities for animal research for 80 days acclimating to their environment prior to the initiation of the study. All dogs were fed a standard canine formulation (Proactive Health™ Adult Minichunks, IAMS, Mason, OH, USA) ration twice daily and housed in a temperature and humidity controlled room; 21 °C and 30%, respectively, while under 12 h light cycle conditions. The dogs underwent daily examinations and weekly body weight assessments. All animals were also given daily enrichment activities before, during, and after the study. At study termination all animals were transferred to an unrelated study. Dogs were fasted 12 h prior to the study but provided free access to water. Each subject was administered a single Phycox® soft chew and a series of blood samples (3 mL) were collected at 0, 1, 2, 4, 6, 8, 12 and 24 h post-dose via saphenous or cephalic vein depending on the temperament of the animals. Animals were fed after 2 h post-dose. Following centrifugation of the blood samples, serum was removed and stored at −80 °C until analyzed. One hundred microliters of serum from each PK sample was placed into a microcentrifuge tube. To all samples, except 0 h, 40 μL of 0.1 μg/mL internal standard stock solution (caffeine) was added along with 1.0 mL of cold acetonitrile (−20 °C) to precipitate proteins. The samples were vortexed and centrifuged at 20,160× g for 5 min. […] The residues were reconstituted with 50 μL of starting mobile phase (0.05% aqueous formic acid), vortexed and centrifuged at 20,160× g for 5 min. The supernatants were transferred to 30 kDa centrifugal filter tubes and centrifuged for 30 min at 9000× g. The filtrate was transferred to HPLC vials and 5 μL were injected into the LC-MS/MS system. The PK serum samples were separated into two sets of microcentrifuge tubes (total and aglycone) with 100 μL of serum in each. To the total samples, 20 μL β-glucuronidase (500 U/mL in 6.8 pH phosphate buffer) was added and incubated for 2 h at 37 °C [28]. To all samples except 0 h, 20 μL of 10 μg/mL internal standard stock solution (±liquiritigenin) was added along with 1.0 mL of cold acetonitrile (−20 °C) to precipitate proteins. […] The residues were reconstituted with 50 μL of mobile phase (50% aqueous methanol with 0.1% formic acid), vortexed and centrifuged at 20,160× g for 5 min. The supernatants were transferred to 30 kDa centrifugal filter tubes and centrifuged for 30 min at 9000× g. The filtrate was transferred to HPLC vials and 5 μL were injected into the LC-MS/MS system. PK samples were analyzed using Phoenix WinNonlin software (ver. 6.3; Certara, St. Louis, MO, USA) to derive the pharmacokinetic parameters for each individual dog and expressed as mean ± SEM. A non-compartmental analysis was used to calculate the PK parameters including area under the curve (AUC0–∞), the peak serum concentration (Cmax), time to reach peak serum concentration (Tmax), the apparent volume of distribution (Vd/F), the elimination half-life (t1/2), and the apparent clearance (CL/F). The elimination rate constant (KE), was estimated by log-linear regression of the serum concentrations. The AUC0–∞ was calculated using the long-linear trapezoidal rule for data from time of dosing to the last measured concentration plus the quotient of the last measured concentration divided by KE/2.303. The concentration time points of the animals were subjected to non-compartmental modeling.

A short description of data set [2]: Oral pharmacokinetics of glucosamine HCl in Beagle dogs (Adebowale et al.). In kind it is in vivo. The following applies: longer than in this study (Phycox soft chew, 450 mg). Here is the method: Two previous studies have evaluated the oral pharmacokinetics of glucosamine HCl in Beagle dogs. Adebowale et al. administered 1500–2000 mg of glucosamine HCl to eight dogs and used non-compartmental modeling to derive PK parameters. […] The serum-concentration time curve reported in Adebowale et al. was similar in shape to the curve reported in this study but the half-lives were reported to be between 1.52–2.4 h, which is […] than the half-live reported in this study. […] The method employed by the study utilized a validated HPLC method with a limit of quantification of 1.25 μg/mL and involved pre-column derivatization. The amount of glucosamine administered in the present study was 3.3 to 4.4 less than those administered in the study by Adebowale et al. but the method employed in this study was 250 times more sensitive allowing for detection of much smaller concentrations of glucosamine. Various LC-MS-MS assays are validated in the literature across various fluids and species. […] The second report of glucosamine HCl PK in dogs administered 1000 mg of glucosamine HCl to four male dogs using two commercially available chewable tablet formulations. […] The method employed by the study used a modified HPLC method with a limit of quantification of 0.05 μg/mL (10 fold higher limit of quantitation than the method presented in this study) and involved pre-column derivatization. […]

On the set-up of data set [3]: method as in PMID 26205697. The following applies: cited from earlier work.
Details of data set [4]: method as in PMID 12214321. As to conditions: cited from earlier work.
On the set-up of data set [5]: method as in PMID 19647388. The following applies: Beagle dogs; cited from earlier work.
[6] abbreviates: female, Beagle, dog, glucosamine HCl 450 mg in one Phycox soft chew PO, fasted dogs, serum, n = 4, mean ± SEM.
Setting [7] is: 1000 mg glucosamine HCl, four male dogs, two commercially available chewable tablet formulations.

SMILES strings stand for the structures. “Also recorded” adds a separate entry of the source. Where a name gives a salt, the structure may show the parent alone. Read-outs that look alike come from different tables or passages of the source.

`COc1ccc(C2CC(=O)c3c(O)cc(O)cc3O2)cc1O` (racemic) [±hesperetin]: the “serum concentration of polyphenol (aglycone or glucuronidated metabolite)” value in data set [1] (dogs, LOQ 5 ng/mL) was “no compounds were detected at quantifiable concentrations”; in data set [1] (dogs, LOQ 5 ng/mL, listed as ±Hesperetin), “not detected at quantifiable concentrations”.
For `N[C@H]1C(O)O[C@H](CO)[C@@H](O)[C@@H]1O` (stereo partly drawn) [glucosamine, glucosamine hydrochloride], in data set [2], the “half-life of Adebowale et al. relative to the half-life of this study” value is recorded as 3–5 times. Moreover, the half-life in data set [1] (female, Beagle, dog, serum, glucosamine HCl 450 mg in one Phycox soft chew PO, dogs, serum, read-out: apparent t1/2) was around 35 min. For the same molecule, the half-life in data set [1] (female, Beagle, dog, serum, glucosamine HCl 450 mg in one Phycox soft chew PO, fasted dogs, serum, n = 4, mean ± SEM, read-out: t1/2 (converted)) is 35 ± 2.04 min. Besides, in data set [1] (setting [6]), the AUC(0-inf) is 20400 ± 2340 ng·h/mL; the CL/F (commonly clearance divided by bioavailability, as obtained after extravascular dosing) is 42.7 mL/min/kg; the Cmax was 9690 ± 1140 ng/mL; the Tmax came out at 120 min. Also, the Vd/F (in general, the volume of distribution divided by bioavailability) in data set [1] (setting [6]) was 2.1 ± 0.254 L/kg. Moreover, in data set [1] (single PO Phycox soft chew, dogs, samples collected for 24 h, LOQ 5 ng/mL), the “time post-dose up to which glucosamine was detected in serum” value is given as “up to 8 h”. In addition, in data set [3] (setting [7]), the Cmax is 1800 to 2600 ng/mL and the Tmax is 252 to 300 min. Moreover, the detection of glucosamine result in data set [3] (at 12 h post-dose, HPLC, LOQ 0.05 μg/mL) is on record as “not able to detect”. Further, the half-lives in data set [4] (1500–2000 mg glucosamine HCl oral, eight Beagle dogs) is 1.52 to 2.4 h. The detection of glucosamine entry in data set [4] (after 4 h post-dose, HPLC, LOQ 1.25 μg/mL) was “not able to detect”. The “absorption of glucosamine co-administered with chitosan compared to glucosamine alone” value in data set [5] is recorded as “increased”.
Regarding `Oc1ccc(/C=C/c2cc(O)cc(O)c2)cc1` [trans-resveratrol], the “serum concentration of polyphenol (aglycone or glucuronidated metabolite)” value in data set [1] (dogs, LOQ 5 ng/mL) is “not detected at quantifiable concentrations; also recorded: no compounds were detected at quantifiable concentrations”.
